According to paper PMC11813896, “Bis(7)-harmine derivatives as potential multi-target anti-Alzheimer agents” (Frontiers in Chemistry, 2025):

target: hAChE (Homo sapiens, UniProt P22303); experiment: biochemical; details: Mean ± SD from 3-5 assays; read-out: IC50 (nM) for cholinesterase hAChE
Protocol: 50 μL of hAChE (0.02 unit/mL) or hBChE (0.02 unit/mL) were incubated with 10 μL of the compound in 96-well plates at 37°C for 6 min. Subsequently, 30 μL of a substrate solution containing acetylthiocholine iodide (ATCI) or butyrylthiocholine iodide (BTCI) at a concentration of 0.01 M was added, and the mixture was further incubated at 37°C for an additional duration of 12 min.

Sequence of hAChE (P22303 32-614): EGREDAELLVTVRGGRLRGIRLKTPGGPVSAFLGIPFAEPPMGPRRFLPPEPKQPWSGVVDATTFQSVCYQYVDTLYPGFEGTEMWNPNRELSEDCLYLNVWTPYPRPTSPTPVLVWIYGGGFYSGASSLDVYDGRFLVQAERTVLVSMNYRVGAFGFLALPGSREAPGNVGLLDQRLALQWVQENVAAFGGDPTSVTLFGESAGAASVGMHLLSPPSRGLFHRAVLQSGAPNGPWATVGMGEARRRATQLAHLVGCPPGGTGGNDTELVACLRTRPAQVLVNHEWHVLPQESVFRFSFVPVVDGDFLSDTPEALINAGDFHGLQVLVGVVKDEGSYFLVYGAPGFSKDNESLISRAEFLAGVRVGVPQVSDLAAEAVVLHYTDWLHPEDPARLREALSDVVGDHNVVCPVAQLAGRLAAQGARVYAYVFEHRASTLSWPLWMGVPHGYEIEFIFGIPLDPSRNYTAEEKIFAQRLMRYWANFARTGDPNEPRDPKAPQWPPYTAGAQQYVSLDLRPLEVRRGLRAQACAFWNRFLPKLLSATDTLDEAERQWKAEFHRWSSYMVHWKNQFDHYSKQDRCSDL

C=CCn1c2cc(OCCCCCCCOc3ccc4c5ccnc(C)c5n(CC=C)c4c3)ccc2c2ccnc(C)c21 [Compound 7d, 1,7-bis ((9-allyl-1-methyl-9H-pyrido [3,4-b]indol-7-yl)oxy)heptane] was tested. Which IC50 did it give?
Its IC50 is 896 ± 65.4 nM.

same assay, conditions: compound at 1 μM; read-out: inhibition of hAChE in primary screening

Cc1nccc2c3ccc(OCCCCOc4ccc5c6ccnc(C)c6n(C)c5c4)cc3n(C)c12 [Compound 4a, 1,4-bis ((1,9-dimethyl-9H-pyrido [3,4-b]indol-7-yl)oxy)butane] was tested. Which inhibition at 1 µM did it give?
The inhibition at 1 µM was 36.3%.

With C=CCn1c2cc(OCCCCOc3ccc4c5ccnc(C)c5n(CC=C)c4c3)ccc2c2ccnc(C)c21 [Compound 4d, 1,4-bis ((9-allyl-1-methyl-9H-pyrido [3,4-b]indol-7-yl)oxy)butane] as the molecule, how does the inhibition at 1 µM read?
Its inhibition at 1 µM is 45.6%.

How did the inhibition at 1 µM turn out when Cc1nccc2c3ccc(OCCCCCCCCOc4ccc5c6ccnc(C)c6n(C)c5c4)cc3n(C)c12 [Compound 8a, 1,8-bis ((1,9-dimethyl-9H-pyrido [3,4-b]indol-7-yl)oxy)octane] was run?
Its inhibition at 1 µM is 42.2%.

target: T1, recombinant hMAO-B (Homo sapiens, UniProt P27338); experiment: biochemical; details: compound at 1 μM; read-out: inhibition of hMAO-B in primary screening
T1 construct: purchased Sigma-Aldrich
T1 sequence (P27338 1-520): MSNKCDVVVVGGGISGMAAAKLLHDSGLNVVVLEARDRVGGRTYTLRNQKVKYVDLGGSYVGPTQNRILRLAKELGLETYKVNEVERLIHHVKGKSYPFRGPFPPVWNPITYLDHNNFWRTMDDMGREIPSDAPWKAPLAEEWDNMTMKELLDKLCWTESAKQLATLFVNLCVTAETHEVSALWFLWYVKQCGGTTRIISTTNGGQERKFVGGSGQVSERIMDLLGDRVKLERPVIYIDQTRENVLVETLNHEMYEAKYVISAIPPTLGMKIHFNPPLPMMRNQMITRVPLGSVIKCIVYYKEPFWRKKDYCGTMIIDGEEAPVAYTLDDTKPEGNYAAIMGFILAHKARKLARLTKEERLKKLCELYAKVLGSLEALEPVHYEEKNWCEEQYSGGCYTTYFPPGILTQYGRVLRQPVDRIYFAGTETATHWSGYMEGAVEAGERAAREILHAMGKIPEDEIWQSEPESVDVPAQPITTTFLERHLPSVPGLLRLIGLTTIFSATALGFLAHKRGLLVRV
Protocol: (§1) Briefly, the compounds under investigation and the reference inhibitor were preincubated with kynuramine at 37°C for 10 min in 96-well microplates. […] The enzymatic reactions were terminated by adding 400 μL of 2 N NaOH and 1,000 μL of water, followed by centrifugation at 16,000 g for 10 min. Subsequently, the concentrations of MAOs that produced 4-hydroxyquinoline were determined by measuring the fluorescence of the supernatant using a Varioskan Flash Multimode Reader ([…]) with excitation and emission wavelengths set at 310 nm and 400 nm, respectively. The IC50 values were calculated from dose-response curves and expressed as the mean ± standard deviation. These values were determined based on at least three independent experiments, each performed in triplicate.

For Cc1nccc2c3ccc(OCCCCOc4ccc5c6ccnc(C)c6n(C)c5c4)cc3n(C)c12 [Compound 4a, 1,4-bis ((1,9-dimethyl-9H-pyrido [3,4-b]indol-7-yl)oxy)butane], which inhibition at 1 µM is on record?
Its inhibition at 1 µM is 13.8%.

For C=CCn1c2cc(OCCCCOc3ccc4c5ccnc(C)c5n(CC=C)c4c3)ccc2c2ccnc(C)c21 [Compound 4d, 1,4-bis ((9-allyl-1-methyl-9H-pyrido [3,4-b]indol-7-yl)oxy)butane], which inhibition at 1 µM is on record?
Its inhibition at 1 µM is 30.3%.

same assay, conditions: mean ± SD; read-out: IC50 (nM) for monoamine oxidases hMAO-B

With C=CCn1c2cc(OCCCCCCCOc3ccc4c5ccnc(C)c5n(CC=C)c4c3)ccc2c2ccnc(C)c21 [Compound 7d, 1,7-bis ((9-allyl-1-methyl-9H-pyrido [3,4-b]indol-7-yl)oxy)heptane] as the molecule, how does the IC50 read?
The IC50 was 12.6 ± 0.76 nM.

For Cc1nccc2c3ccc(OCCCCCCCCOc4ccc5c6ccnc(C)c6n(C)c5c4)cc3n(C)c12 [Compound 8a, 1,8-bis ((1,9-dimethyl-9H-pyrido [3,4-b]indol-7-yl)oxy)octane], which IC50 is on record?
Its IC50 is 954 ± 49.8 nM.

target: T2, recombinant hMAO-A (Homo sapiens, UniProt P21397); experiment: biochemical; details: not given
T2 construct: purchased Sigma-Aldrich
T2 sequence (P21397 1-527): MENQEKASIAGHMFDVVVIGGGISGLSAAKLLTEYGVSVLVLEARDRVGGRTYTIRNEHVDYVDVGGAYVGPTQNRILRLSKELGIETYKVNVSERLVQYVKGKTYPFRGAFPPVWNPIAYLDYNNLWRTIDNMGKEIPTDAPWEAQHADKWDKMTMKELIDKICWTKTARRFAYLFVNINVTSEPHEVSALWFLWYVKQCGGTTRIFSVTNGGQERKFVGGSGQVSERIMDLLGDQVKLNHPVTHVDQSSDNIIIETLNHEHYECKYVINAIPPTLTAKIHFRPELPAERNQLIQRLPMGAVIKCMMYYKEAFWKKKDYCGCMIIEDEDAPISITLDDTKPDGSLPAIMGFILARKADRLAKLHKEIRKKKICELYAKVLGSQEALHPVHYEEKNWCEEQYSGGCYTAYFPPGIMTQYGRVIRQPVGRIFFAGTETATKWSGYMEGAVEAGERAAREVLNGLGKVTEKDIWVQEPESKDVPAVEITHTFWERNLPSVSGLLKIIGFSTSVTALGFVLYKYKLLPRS
Protocol: as §1

How did the “S.I. Selectivity index IC50(hMAO-B)/IC50(hMAO-A)” value turn out when C=CCn1c2cc(OCCCCCCCOc3ccc4c5ccnc(C)c5n(CC=C)c4c3)ccc2c2ccnc(C)c21 [Compound 7d, 1,7-bis ((9-allyl-1-methyl-9H-pyrido [3,4-b]indol-7-yl)oxy)heptane] was run?
Its value is 0.2.

How did the “S.I. Selectivity index IC50(hMAO-B)/IC50(hMAO-A)” value turn out when Cc1nccc2c3ccc(OCCCCCCCCOc4ccc5c6ccnc(C)c6n(C)c5c4)cc3n(C)c12 [Compound 8a, 1,8-bis ((1,9-dimethyl-9H-pyrido [3,4-b]indol-7-yl)oxy)octane] was run?
The value was 10.0.

same assay, conditions: compound at 1 μM; read-out: inhibition of hMAO-A in primary screening

How did the inhibition at 1 µM turn out when Cc1nccc2c3ccc(OCCCCOc4ccc5c6ccnc(C)c6n(C)c5c4)cc3n(C)c12 [Compound 4a, 1,4-bis ((1,9-dimethyl-9H-pyrido [3,4-b]indol-7-yl)oxy)butane] was run?
The inhibition at 1 µM was 41.5%.

C=CCn1c2cc(OCCCCOc3ccc4c5ccnc(C)c5n(CC=C)c4c3)ccc2c2ccnc(C)c21 [Compound 4d, 1,4-bis ((9-allyl-1-methyl-9H-pyrido [3,4-b]indol-7-yl)oxy)butane] was tested. Which inhibition at 1 µM did it give?
Its inhibition at 1 µM is 49.3%.

same assay, conditions: mean ± SD; read-out: IC50 (nM) for monoamine oxidases hMAO-A

Which IC50 does the source give for C=CCn1c2cc(OCCCCCCCOc3ccc4c5ccnc(C)c5n(CC=C)c4c3)ccc2c2ccnc(C)c21 [Compound 7d, 1,7-bis ((9-allyl-1-methyl-9H-pyrido [3,4-b]indol-7-yl)oxy)heptane] here?
The IC50 was 74.6 ± 5.2 nM.

With Cc1nccc2c3ccc(OCCCCCCCCOc4ccc5c6ccnc(C)c6n(C)c5c4)cc3n(C)c12 [Compound 8a, 1,8-bis ((1,9-dimethyl-9H-pyrido [3,4-b]indol-7-yl)oxy)octane] as the molecule, how does the IC50 read?
The IC50 was 95.2 ± 4.9 nM.

target: Aβ 1−42 (Homo sapiens, UniProt P05067); experiment: Thioflavin T fluorescence assay, Aβ 1−42 self-aggregation; format: biochemical; details: Aβ 1-42 20 μM, 37°C, 24 h
Protocol: The thioflavin T (Th-T) fluorescence assay was used to assess the inhibition of Aβ 1−42 self-aggregation. […] Subsequently, the reaction was terminated to a final volume of 200 μL using Th-T (10 μM) solution.

Sequence of Aβ 1−42 (P05067 672-713 limits assumed): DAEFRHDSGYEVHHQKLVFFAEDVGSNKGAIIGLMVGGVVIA

C=CCn1c2cc(OCCCCCCCOc3ccc4c5ccnc(C)c5n(CC=C)c4c3)ccc2c2ccnc(C)c21 [Compound 7d, 1,7-bis ((9-allyl-1-methyl-9H-pyrido [3,4-b]indol-7-yl)oxy)heptane] was tested. Which IC50 did it give?
Its IC50 is 17.1 ± 0.6 µM.

How did the IC50 turn out when Cc1nccc2c3ccc(OCCCCCCCCOc4ccc5c6ccnc(C)c6n(C)c5c4)cc3n(C)c12 [Compound 8a, 1,8-bis ((1,9-dimethyl-9H-pyrido [3,4-b]indol-7-yl)oxy)octane] was run?
The IC50 was 16.5 ± 0.4 µM.

same assay, conditions: compound at 20 μM

For Cc1nccc2c3ccc(OCCCCOc4ccc5c6ccnc(C)c6n(C)c5c4)cc3n(C)c12 [Compound 4a, 1,4-bis ((1,9-dimethyl-9H-pyrido [3,4-b]indol-7-yl)oxy)butane], which “inhibition percent ratio of self-induced Aβ 1-42 aggregation” value is on record?
The value was 39.3%.

How did the “inhibition percent ratio of self-induced Aβ 1-42 aggregation” value turn out when C=CCn1c2cc(OCCCCOc3ccc4c5ccnc(C)c5n(CC=C)c4c3)ccc2c2ccnc(C)c21 [Compound 4d, 1,4-bis ((9-allyl-1-methyl-9H-pyrido [3,4-b]indol-7-yl)oxy)butane] was run?
The value was 35.5%.

target: hBuChE (Homo sapiens, UniProt P06276); experiment: Ellman's assay, hBuChE inhibition; format: biochemical; details: Mean ± SD from 3-5 assays; read-out: IC50 (nM) for cholinesterase hBuChE
Protocol: The Ellman’s assay was utilized to assess the inhibitory potential of novel bis(7)-harmine derivatives against hAChE and hBuChE. 50 μL of hAChE (0.02 unit/mL) or hBChE (0.02 unit/mL) were incubated with 10 μL of the compound in 96-well plates at 37°C for 6 min. Subsequently, 30 μL of a substrate solution containing acetylthiocholine iodide (ATCI) or butyrylthiocholine iodide (BTCI) at a concentration of 0.01 M was added, and the mixture was further incubated at 37°C for an additional duration of 12 min. Finally, the activity was measured by adding 150 μL of a solution containing 5,5′−dithiobis (2-nitrobenzoic acid) (DTNB) at a concentration of 0.01 M, followed by measuring absorbance at a wavelength of 415 nm using an Evolution 300 PC UV-Vis Spectrophotometer.

Sequence of hBuChE (P06276 29-602): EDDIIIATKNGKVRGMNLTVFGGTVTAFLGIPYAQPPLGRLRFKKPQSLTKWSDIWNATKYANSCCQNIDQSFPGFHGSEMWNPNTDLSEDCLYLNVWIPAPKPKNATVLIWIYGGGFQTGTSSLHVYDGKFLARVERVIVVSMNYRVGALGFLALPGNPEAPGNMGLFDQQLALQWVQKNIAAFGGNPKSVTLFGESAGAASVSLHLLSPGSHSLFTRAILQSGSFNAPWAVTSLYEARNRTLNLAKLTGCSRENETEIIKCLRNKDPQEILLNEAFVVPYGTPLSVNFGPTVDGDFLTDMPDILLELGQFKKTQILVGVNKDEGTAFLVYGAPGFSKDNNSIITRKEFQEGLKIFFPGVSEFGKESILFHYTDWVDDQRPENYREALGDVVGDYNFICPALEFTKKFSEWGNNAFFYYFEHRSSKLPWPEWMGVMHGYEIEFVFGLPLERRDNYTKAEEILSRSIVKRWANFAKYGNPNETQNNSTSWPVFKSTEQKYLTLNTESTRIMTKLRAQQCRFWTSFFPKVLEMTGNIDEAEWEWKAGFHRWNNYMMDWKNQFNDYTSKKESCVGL

With C=CCn1c2cc(OCCCCCCCOc3ccc4c5ccnc(C)c5n(CC=C)c4c3)ccc2c2ccnc(C)c21 [Compound 7d, 1,7-bis ((9-allyl-1-methyl-9H-pyrido [3,4-b]indol-7-yl)oxy)heptane] as the molecule, how does the IC50 read?
Its IC50 is 23.7 ± 1.3 nM.

same assay, conditions: compound at 1 μM; read-out: inhibition of hBuChE in primary screening

Which inhibition at 1 µM does the source give for Cc1nccc2c3ccc(OCCCCOc4ccc5c6ccnc(C)c6n(C)c5c4)cc3n(C)c12 [Compound 4a, 1,4-bis ((1,9-dimethyl-9H-pyrido [3,4-b]indol-7-yl)oxy)butane] here?
The inhibition at 1 µM was 30.5%.

With C=CCn1c2cc(OCCCCOc3ccc4c5ccnc(C)c5n(CC=C)c4c3)ccc2c2ccnc(C)c21 [Compound 4d, 1,4-bis ((9-allyl-1-methyl-9H-pyrido [3,4-b]indol-7-yl)oxy)butane] as the molecule, how does the inhibition at 1 µM read?
Its inhibition at 1 µM is 32.9%.

For Cc1nccc2c3ccc(OCCCCCCCCOc4ccc5c6ccnc(C)c6n(C)c5c4)cc3n(C)c12 [Compound 8a, 1,8-bis ((1,9-dimethyl-9H-pyrido [3,4-b]indol-7-yl)oxy)octane], which inhibition at 1 µM is on record?
Its inhibition at 1 µM is 39.1%.
